# Patent US6538037B2, “Methods for preparation and use of 1α,24(S)-dihydroxyvitamin D2” (Bone Care International, Inc., priority 1991, dated 2003)
# “Also recorded” adds a separate entry of the source.
# Legend:
# vitamin D receptor (VDR) = experiment: Vitamin D-inducible growth hormone production in transfected COS-1 cells; assay type: cell-based, Green monkey; details: for Total GH Production: averages of duplicate determinations
# Method: The biological activity in vitro of chemically synthesized 1α,24(S)-(OH)2D2 and 1α,24(R)-(OH)2D2 was measured using a vitamin D-dependent transcriptional activation model system in which a vitamin D receptor (VDR)-expressing plasmid pSG5-hVDR1/3 and a plasmid p(CT4)^4TKGH containing a Growth Hormone (GH)-gene, under the control of a vitamin D-responsive element (VDRE) were co-transfected into Green monkey kidney, COS-1 cells. DNA's for these two vectors were supplied by Dr. Mark Haussler, Department of Biochemistry, University of Arizona, Tucson, Ariz.
# Transfected cells were incubated with vitamin D metabolites and growth hormone production was measured.
# bovine thymus VDR = target: T1, bovine thymus VDR (Bos taurus, UniProt Q28037); experiment: Radioreceptor assay, displacement of 3H-1α,25-(OH)2D3 tracer from bovine thymus VDR; assay type: binding
# T1 construct: commercially available reagents of bovine thymus VDR; purchased Incstar (Stillwater, Minn.); host or cells: bovine thymus
# T1 sequence (Q28037 1-426): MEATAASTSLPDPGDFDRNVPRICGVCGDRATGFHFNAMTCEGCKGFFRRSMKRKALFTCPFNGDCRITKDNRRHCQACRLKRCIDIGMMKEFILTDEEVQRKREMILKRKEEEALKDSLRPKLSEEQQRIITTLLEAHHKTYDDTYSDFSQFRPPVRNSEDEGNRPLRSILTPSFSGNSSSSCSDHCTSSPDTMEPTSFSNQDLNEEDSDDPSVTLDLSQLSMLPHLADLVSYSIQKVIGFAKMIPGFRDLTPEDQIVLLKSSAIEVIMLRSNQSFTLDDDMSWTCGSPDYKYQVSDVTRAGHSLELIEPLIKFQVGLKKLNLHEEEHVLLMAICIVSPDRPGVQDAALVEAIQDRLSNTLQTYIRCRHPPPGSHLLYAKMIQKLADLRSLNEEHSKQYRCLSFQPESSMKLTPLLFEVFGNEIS
# Method: Purified 1α,24(S)-(OH)2D2 was quantitated by photodiode array spectrophotometry and assayed in the radioreceptor assay.
# The purified 1α,24(R)-(OH)2D2 and 1α,24(S)-(OH)2D2 epimers were quantitated by ultraviolet spectroscopy.
# The binding affinities of the environmentally exposed compounds, crystalline 1α,24-dihydroxyvitamin D2 and powdered 1α,24-dihydroxyvitamin D2, to the vitamin D receptor (VDR) were assessed using methods known in the art, as described, e.g., in Example 6. […] The percent bound versus amount of compound in pg/tube are graphed in FIG. 5.
# [1] = Prophylaxis of postmenopausal bone loss; assay type: in vivo, human; details: at or above 1.0 μg/day, 24 to 36 months
# Method: A clinical study is conducted with healthy postmenopausal women having ages between 55 and 60 years. The study involves up to 80 patients randomly divided into two treatment groups, and continues for 24 to 36 months. One treatment group receives a constant dosage of 1α,24(S)-dihydroxyvitamin D2 (u.i.d.; a dose level at or above 1.0 μg/day) and the other receives a matching placebo. The study is conducted as indicated in Example 2 above.
# [2] = Hypocalcemia and metabolic bone disease in chronic hemodialysis patients; assay type: in vivo, human; details: greater than 3.0 μg/day
# Method: A twelve-month, double-blind, placebo-controlled clinical trial is conducted with thirty men and women with renal disease who are undergoing chronic hemodialysis. All patients enter an 8-week control period during which time they receive a maintenance dose of Vitamin D3 (400 IU/day). After this control period, the patients are randomized into two treatment groups: one group receives a constant dosage of 1α,24(S)-dihydroxyvitamin D2 (u.i.d.; a dosage greater than 3.0 μg/day) and the other group receives a matching placebo. Both treatment groups receive a maintenance dosage of Vitamin D3, maintain a normal intake of dietary calcium, and refrain from using calcium supplements. Efficacy is evaluated by pre- and post-treatment comparisons of the two patient groups with regard to (a) direct measurements of intestinal calcium absorption, (b) total body calcium retention, (c) radial and spinal bone mineral density, or (d) determinations of serum calcium. Safety is evaluated by regular monitoring of serum calcium.
# [3] = Dermatological testing, topical treatment of dermatitis; assay type: in vivo, human; details: ointment 10 μg per gram, twice daily
# Method: Compositions containing 1α,24(S)-dihydroxyvitamin D2 are evaluated for therapeutic efficacy of the composition in the topical treatment of dermatitis (contact and ectopic). The composition evaluated is an ointment containing 10 μg of 1α,24-dihydroxyvitamin D2 per gram of ointment in a petrolatum-almond oil base. […] The patients are treated in an out-patient clinic. They are instructed to use the preparation two times a day.
# The ointment is as far as possible applied to a single lesion, or to an area of the disease. The ointment and its container are weighed before the treatment starts and returned with any unused contents for reweighing at the end of the treatment.
# The area of the lesion treated is estimated and recorded, and the lesion is photographed as required, together with suitable “control” lesions. The latter are preferably lesions of similar size and stage of development, either in the vicinity of the treated lesion or symmetrically contralateral. Relevant details of the photographic procedure are recorded so as to be reproduced when the lesions are next photographed (distance, aperture, angle, background, etc.). The ointment is applied twice daily and preferably left uncovered. The “control” lesions are left untreated, but if this is not possible, the treatment used on them is noted. […]
# HL-60 promyelocytes = experiment: HL-60 cell differentiation assay; assay type: cell-based; details: dose-response study
# Method: A dose-response study is conducted with 1α,24(S)-(OH)2D2 in the HL-60 cell differentiation assay as described by DeLuca and Ostrom (DeLuca, H. F. and Ostrem, V. K., Prog. Clin. Biol. Res., vol. 259, pp. 41-55 (1988)). In this study, 1α,25-(OH)2D3 is used as a positive control and appropriate solvents are used as negative controls. The following variables are evaluated: nonspecific acid esterase activity, nitroblue tetrazolium (NBT) reduction, and thymidine incorporation.
structure (smiles),measurement,setting,value
"C=C1/C(=C\C=C2/CCC[C@]3(C)[C@@H]([C@H](C)/C=C/[C@@](C)(O)C(C)C)CC[C@@H]23)C[C@@H](O)C[C@@H]1O [1α,24(S)-(OH)2D2, 1α,24(S)-dihydroxyvitamin D2]",Net vitamin D-inducible GH-production,vitamin D receptor (VDR); inducer 5 × 10^−9 M,1306 ng/mL
same,Total GH Production,vitamin D receptor (VDR); inducer 5 × 10^−9 M,1350 ng/mL
same,Net vitamin D-inducible GH-production,vitamin D receptor (VDR); inducer 5 × 10^−10 M,381 ng/mL
same,Total GH Production,vitamin D receptor (VDR); inducer 5 × 10^−10 M,425 ng/mL
same,"affinity for VDR relative to 1α,25-(OH)2D3",bovine thymus VDR,two-fold lower affinity; also recorded: two-fold less competitive
same,IC50,"bovine thymus VDR; radioreceptor assay, Incstar kit, read-out: half-maximal binding (converted)",~0.35 nM
same,"losses in total body calcium, radial or spinal bone densities relative to baseline",[1],"reduced losses in total body calcium, radial or spinal bone densities"
same,monitored safety parameters,[1],"confirm the safety of long-term 1α,24(S)-dihydroxyvitamin D2 administration"
same,intestinal calcium absorption,[2]; double-isotope technique,significantly increases intestinal calcium absorption
same,incidence of hypercalcemia,[2]; twelve months,insignificant incidence of hypercalcemia
same,serum calcium levels,[2]; twelve months,normalized serum calcium levels
same,total body calcium and radial and spinal bone densities relative to baseline,[2]; twelve months,"stable values for total body calcium, and stable radial and spinal bone densities"
same,incidence of hypercalcemia,[3],insignificant incidence of hypercalcemia
same,"lesion severity scores (erythema, scaling, thickness; 0 to 3)",[3]; four to six weeks,lower scores than the control lesions
same,differentiation of HL-60 promyelocytes to monocytes,HL-60 promyelocytes,potent activity in promoting differentiation
